Measured values published in publication PMC11653702, “Targeting the SPC25/RIOK1/MYH9 Axis to Overcome Tumor Stemness and Platinum Resistance in Epithelial Ovarian Cancer” (Advanced Science, 2024).
Where “and” joins values, the source holds several entries; their conditions need not be identical. Identical values can stand only once.

How the values were obtained:
COV644 cells = test: Annexin V/PI apoptosis, COV644; format: cell-based, human; settings: for PI+/AnnexinV+: replicates #1-#3
Protocol: Fluorescence-Activated Cell Sorting Assay: For apoptosis analysis, we used an Annexin V-FITC/PI Apoptosis Detection Kit (#A211-01; Vazyme Biotech), according to the manufacturer’s instructions. We considered the total proportion of Annexin V-positive cells (quadrants II and III) to be the apoptotic rate, regardless of the PI status. All samples were analyzed on a flow cytometer (cytoFLEX LX; Beckman Coulter, Indianapolis, IN, USA), and percentages of apoptotic cells were analyzed using CytExpert (Beckman Coulter).

caspase-3 and PARP = test: Western blotting of apoptosis-related proteins in xenografted tumor tissues; format: in vivo, human EOC cells in BALB/c-Nude mice; settings: SPC25-overexpressing OVCAR3 tumors, CDDP
Protocol: (§1) In the intraperitoneal tumor model, 1 × 10^6 of the indicated cells stably expressing luciferase were injected intraperitoneally into the mice. Treatment with saline (Vehicle), CDDP (5 mg/kg, 3 times per week for 1 week), CBP1 (10 mg/kg, once in 2 days), or a combination of CDDP (5 mg/kg, 3 times per week for 1 week) and CBP1 (10 mg/kg, once in 2 days) was initiated when the bioluminescence signal reached 2 × 10^7 p/s/cm^2/sr for 6 weeks of continuous treatment cycles. The mice were sacrificed when they became moribund, as determined by an observer blinded to the treatment. Finally, their tumors were excised for qRT‐PCR and Western blotting.
Western Blotting: Western blotting was performed using primary antibodies detailed in Table S5 (Supporting Information). Western blotting grayscale analyses were performed using ImageJ (version 2.0.0; NIH, Bethesda, MD, USA). β-Catenin expression was quantified by determining the gray level of each band using Image J and normalized using α-tubulin.

OVCAR3 cells [1] = test: Survival of intraperitoneal tumor-bearing nude mice, OVCAR3; format: in vivo, human EOC cells in BALB/c-Nude mice
From the text: Subsequently, we selected 4 representative EOC cell lines (Figure S1F,G, Supporting Information) and validated the role of SPC25 in mediating platinum resistance in EOC through a series of in vitro and in vivo experiments. […] To further establish an EOC mouse model, we intraperitoneally injected BALB/c‐Nude mice with EOC cells with stable luciferase expression. CDDP treatment (three times per week, a week as a cycle) was initiated when the bioluminescence signal reached 2 × 10^7 p/s/cm^2/sr.
as §1

OVCAR3 cells [2] = test: Cell Counting Kit-8 viability, OVCAR3; format: cell-based, human; settings: SPC25-overexpressing OVCAR3
Protocol: Cell Viability Assay: The indicated cells were seeded into 96-well plates at a density of 4 × 10^3 cells per well. Next, the Cell Counting Kit-8 reagent (Dojindo) was added to the wells, followed by incubation at 37°C for 2 h in the dark, after which the optical density at 450 nm was determined on a microplate reader (EPOCH2; BioTek, USA). Each cell line was represented using triplicate wells, and the experiment was repeated three times.

[NH2][Pt]([NH2])([Cl])[Cl] [CDDP, cisplatin]
PI+/AnnexinV+ (COV644 cells; COV644 SPC25, CDDP 10μM): 9.53 and 5.89 and 7.71 | PI+/AnnexinV+ (COV644 cells; COV644 Vector, CDDP 10μM): 23.38 and 26.97 and 27.94 | CDDP-induced apoptosis (COV644 cells; SPC25-overexpressing COV644): considerably reduced | activation of caspase-3 and PARP (caspase-3 and PARP): lowered activation | Survival, days after CDDP treatment (OVCAR3 cells [1]; OVCAR3 SPC25-overexpressing, status 1, individual mice): 50 days and 52 days and 51 days and 55 days and 62 days | Survival, days after CDDP treatment (OVCAR3 cells [1]; OVCAR3 Vector, status 0, individual mice): 70 days and 64 days and 82 days and 85 days | Survival, days after CDDP treatment (OVCAR3 cells [1]; OVCAR3 Vector, status 1, individual mice): 58 days and 62 days | survival of tumor-bearing mice (OVCAR3 cells [1]; SPC25-overexpressing OVCAR3, CDDP): decreased survival | cell growth in presence of CDDP (OVCAR3 cells [2]): significantly promoted growth
